# Assay results from ChEMBL document CHEMBL5375978, “Harnessing the Reactivity of Duclauxin toward Obtaining hPTP1B1-400 Inhibitors” (J Med Chem, 2023).
# Molecular target: T1, Tyrosine-protein phosphatase non-receptor type 1 (Homo sapiens, UniProt P18031)
# T1 sequence (P18031 whole entry): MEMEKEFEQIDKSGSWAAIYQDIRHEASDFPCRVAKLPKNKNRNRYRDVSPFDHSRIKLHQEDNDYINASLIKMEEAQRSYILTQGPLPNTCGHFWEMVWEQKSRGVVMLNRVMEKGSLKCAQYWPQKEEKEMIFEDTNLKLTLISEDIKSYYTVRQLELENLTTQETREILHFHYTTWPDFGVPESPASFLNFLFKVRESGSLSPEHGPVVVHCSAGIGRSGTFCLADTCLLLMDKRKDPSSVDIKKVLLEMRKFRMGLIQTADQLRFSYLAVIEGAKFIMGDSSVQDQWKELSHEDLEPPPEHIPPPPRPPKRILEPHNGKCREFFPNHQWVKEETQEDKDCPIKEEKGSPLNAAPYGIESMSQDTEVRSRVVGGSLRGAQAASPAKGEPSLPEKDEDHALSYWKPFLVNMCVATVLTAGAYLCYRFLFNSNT
# Test: Inhibition of wild type N-terminal 6 his tagged human PTP1B (1 to 400 residues) expressed in Escherichia coli (Rosetta, DE3) using p-NPP as substrate preincubated for 10 mins followed by substrate addition and measured after 20 mins by absorbance based analysis
row,IC50,SMILES
1,3.5 µM,CC(=O)O[C@H]1[C@@H]2C(=O)c3c(C)cc(O)c4c3[C@@]1(COC4=O)c1c(O)c(C=O)c3cc(O)cc(C)c3c12
2,13.2 µM,CC(=O)O[C@H]1[C@@H]2C(=O)c3c(C)cc(O)c4c3[C@@]1(COC4=O)C1=C2c2c(C)cc(O)c3c(=O)n(-c4ccccc4O)cc(c23)C1=O
3,8 µM,CC(=O)O[C@H]1[C@@H]2C(=O)c3c(C)cc(O)c4c3[C@@]1(COC4=O)C1=C2c2c(C)cc(O)c3c(=O)n(-c4cccc([N+](=O)[O-])c4)cc(c23)C1=O
4,38 µM,CO[C@H]1OC(=O)c2c(O)cc(C)c3c4c(c(O)c1c23)[C@]12COC(=O)c3c(O)cc(C)c(c31)C(=O)[C@H]4[C@@H]2OC(C)=O
5,9.3 µM,CC(=O)O[C@H]1[C@@H]2C(=O)c3c(C)cc(O)c4c3[C@@]1(COC4=O)C1=C2c2c(C)cc(O)c3c(=O)n(-c4ccc(Br)cc4)cc(c23)C1=O
6,23.7 µM,CC(=O)O[C@H]1[C@@H]2C(=O)c3c(C)cc(O)c4c3[C@@]1(COC4=O)C1=C2c2c(C)cc(O)c3c(=O)n(-c4ccc(O)cc4)cc(c23)C1=O
7,27.2 µM,CC(=O)O[C@H]1[C@@H]2C(=O)c3c(C)cc(O)c4c3[C@@]1(COC4=O)C1=C2c2c(C)cc(O)c3c(=O)n(-c4ccccc4[N+](=O)[O-])cc(c23)C1=O
8,36.4 µM,CC(=O)O[C@H]1[C@@H]2C(=O)c3c(C)cc(O)c4c3[C@@]1(COC4=O)C1=C2c2c(C)cc(O)c3c(=O)n(-c4ccccn4)cc(c23)C1=O
9,52.4 µM,COc1cc(-n2cc3c4c(c(C)cc(O)c4c2=O)C2=C(C3=O)[C@]34COC(=O)c5c(O)cc(C)c(c53)C(=O)[C@H]2[C@@H]4OC(C)=O)cc(OC)c1OC
10,15.9 µM,CC(=O)O[C@H]1[C@@H]2C(=O)c3c(C)cc(O)c4c3[C@@]1(COC4=O)C1=C2c2c(C)cc(O)c3c(=O)n(-c4cccc5ncccc45)cc(c23)C1=O
11,73.1 µM,CO[C@@]12c3c(C)cc(O)c4c(=O)n(-c5cccc(Cl)c5)cc(c34)C(=O)[C@@H]1[C@]13COC(=O)c4c(O)cc(C)c(c41)C(=O)[C@H]2[C@@H]3OC(C)=O
12,16.9 µM,COc1ccc(-n2cc3c4c(c(C)cc(O)c4c2=O)C2=C(C3=O)[C@]34COC(=O)c5c(O)cc(C)c(c53)C(=O)[C@H]2[C@@H]4OC(C)=O)cc1OC
13,47.4 µM,CO[C@@]12c3c(C)cc(O)c4c(=O)n(-c5ccc(Br)cc5)cc(c34)C(=O)[C@@H]1[C@]13COC(=O)c4c(O)cc(C)c(c41)C(=O)[C@H]2[C@@H]3OC(C)=O
14,56.9 µM,CC(=O)O[C@H]1[C@@H]2C(=O)c3c(C)cc(O)c4c3[C@@]1(COC4=O)C1=C2c2c(C)cc(O)c3c(=O)n(-c4cccnc4)cc(c23)C1=O
15,15.7 µM,CC(=O)O[C@H]1[C@@H]2C(=O)c3c(C)cc(O)c4c3[C@@]1(COC4=O)C1=C2c2c(C)cc(O)c3c(=O)n(-c4cc(C)ccn4)cc(c23)C1=O
16,35.3 µM,CO[C@@]12c3c(C)cc(O)c4c(=O)n(-c5ccc(C)cc5)cc(c34)C(=O)[C@@H]1[C@]13COC(=O)c4c(O)cc(C)c(c41)C(=O)[C@H]2[C@@H]3OC(C)=O
17,32.3 µM,CC(=O)O[C@H]1[C@@H]2C(=O)c3c(C)cc(O)c4c3[C@@]1(COC4=O)C1=C2c2c(C)cc(O)c3c(=O)n(-c4ncccc4C)cc(c23)C1=O
18,36.6 µM,CC(=O)O[C@H]1[C@@H]2C(=O)c3c(C)cc(O)c4c3[C@@]1(COC4=O)C1=C2c2c(C)cc(O)c3c(=O)[nH]cc(c23)C1=O
19,38.8 µM,CC(=O)O[C@H]1[C@@H]2C(=O)c3c(C)cc(O)c4c3[C@@]1(COC4=O)C1=C2c2c(C)cc(O)c3c(=O)n(-c4ccccc4Cl)cc(c23)C1=O
20,55.6 µM,CCOC(=O)[C@H](Cc1ccccc1)n1cc2c3c(c(C)cc(O)c3c1=O)[C@]1(OC)[C@H](C2=O)[C@]23COC(=O)c4c(O)cc(C)c(c42)C(=O)[C@H]1[C@@H]3OC(C)=O

row,IC50,SMILES
1,22.9 µM,CCOC(=O)[C@H](Cc1ccccc1)n1cc2c3c(c(C)cc(O)c3c1=O)C1=C(C2=O)[C@]23COC(=O)c4c(O)cc(C)c(c42)C(=O)[C@H]1[C@@H]3OC(C)=O
2,5.7 µM,CC(=O)O[C@H]1[C@@H]2C(=O)c3c(C)cc(O)c4c3[C@@]1(COC4=O)C1=C2c2c(C)cc(O)c3c(=O)n(-c4ccc5ncccc5c4)cc(c23)C1=O
3,21.9 µM,CC(=O)O[C@H]1[C@@H]2C(=O)c3c(C)cc(O)c4c3[C@@]1(COC4=O)c1c(O)c3c4c(c(O)cc(C)c4c12)C(=O)OC3=O
4,14.7 µM,COc1ccc(-n2cc3c4c(c(C)cc(O)c4c2=O)C2=C(C3=O)[C@]34COC(=O)c5c(O)cc(C)c(c53)C(=O)[C@H]2[C@@H]4OC(C)=O)cc1
5,82.1 µM,CC(=O)O[C@H]1[C@@H]2C(=O)c3c(C)cc(O)c4c3[C@@]1(COC4=O)c1c(O)c3c4c(c(O)cc(C)c4c12)C(=O)O3
6,23.3 µM,CC(=O)O[C@H]1[C@@H]2C(=O)c3c(C)cc(O)c4c3[C@@]1(COC4=O)C1=C2c2c(C)cc(O)c3c(=O)n(-c4cnc5ccccc5c4)cc(c23)C1=O
7,13 µM,CC(=O)O[C@H]1[C@@H]2C(=O)c3c(C)cc(O)c4c3[C@@]1(COC4=O)C1=C2c2c(C)cc(O)c3c(=O)n(-c4ccc(I)cc4)cc(c23)C1=O
8,78.4 µM,CC(=O)O[C@H]1[C@@H]2C(=O)c3c(C)cc(O)c4c3[C@@]1(COC4=O)C1=C2c2c(C)cc(O)c3c(=O)n(-c4ccccc4)cc(c23)C1=O
9,23.7 µM,CO[C@@]12c3c(C)cc(O)c4c3C(=C(O)[C@@H]1[C@]13COC(=O)c5c(O)cc(C)c(c51)C(=O)[C@H]2[C@@H]3OC(C)=O)C=NC4=O
10,3.2 µM,CC(=O)O[C@H]1[C@@H]2C(=O)c3c(C)cc(O)c4c3[C@@]1(COC4=O)C1=C2c2c(C)cc(O)c3c(=O)n(-c4ccc(C)cc4)cc(c23)C1=O
11,17.5 µM,CC(=O)O[C@H]1[C@@H]2C(=O)c3c(C)cc(O)c4c3[C@@]1(COC4=O)C1=C2c2c(C)cc(O)c3c(=O)n(-c4ccccc4I)cc(c23)C1=O
12,31.6 µM,CC(=O)O[C@H]1[C@@H]2C(=O)c3c(C)cc(O)c4c3[C@@]1(COC4=O)C1=C2c2c(C)cc(O)c3c(=O)n(-c4ccc(O)cc4[N+](=O)[O-])cc(c23)C1=O
13,12.6 µM,CO[C@@H]1OC(=O)c2c(O)cc(C)c3c4c(c(O)c1c23)[C@]12COC(=O)c3c(O)cc(C)c(c31)C(=O)[C@H]4[C@@H]2OC(C)=O
14,13.5 µM,CO[C@@]12c3c(C)cc(O)c4c(=O)n(CC(=O)O)cc(c34)C(=O)[C@@H]1[C@]13COC(=O)c4c(O)cc(C)c(c41)C(=O)[C@H]2[C@@H]3OC(C)=O
15,6.4 µM,CC(=O)O[C@H]1[C@@H]2C(=O)c3c(C)cc(O)c4c3[C@@]1(COC4=O)C1=C2c2c(C)cc(O)c3c(=O)n(-c4cccc5cccnc45)cc(c23)C1=O
16,13.9 µM,CC(=O)O[C@H]1[C@@H]2C(=O)c3c(C)cc(O)c4c3[C@@]1(COC4=O)C1=C2c2c(C)cc(O)c3c(=O)n(-c4ccc(Cl)cc4)cc(c23)C1=O
17,12.3 µM,CO[C@@]12c3c(C)cc(O)c4c(=O)n(-c5cccc([N+](=O)[O-])c5)cc(c34)C(=O)[C@@H]1[C@]13COC(=O)c4c(O)cc(C)c(c41)C(=O)[C@H]2[C@@H]3OC(C)=O
18,35 µM,CC(=O)O[C@H]1[C@@H]2C(=O)c3c(C)cc(O)c4c3[C@@]1(COC4=O)C1=C2c2c(C)cc(O)c3c(=O)n(-c4ccccc4F)cc(c23)C1=O
19,23.7 µM,CC(=O)O[C@H]1[C@@H]2C(=O)c3c(C)cc(O)c4c3[C@@]1(COC4=O)C1=C2c2c(C)cc(O)c3c(=O)n(-c4cccc(Cl)c4)cc(c23)C1=O
